Experimental data as given in PMC9942120 (iScience, 2023).

Legend:
Assay type in all cases: cell-based
SPTLC2 = target: T1, SPTLC2 (Homo sapiens, UniProt O15270); test: direct LC-MS/MS profiling of modified tryptic peptides; settings: covalent at Cys99; H358 cells, […] AMG510, […] h (methods print […] h)
T1 sequence (O15270 1-562): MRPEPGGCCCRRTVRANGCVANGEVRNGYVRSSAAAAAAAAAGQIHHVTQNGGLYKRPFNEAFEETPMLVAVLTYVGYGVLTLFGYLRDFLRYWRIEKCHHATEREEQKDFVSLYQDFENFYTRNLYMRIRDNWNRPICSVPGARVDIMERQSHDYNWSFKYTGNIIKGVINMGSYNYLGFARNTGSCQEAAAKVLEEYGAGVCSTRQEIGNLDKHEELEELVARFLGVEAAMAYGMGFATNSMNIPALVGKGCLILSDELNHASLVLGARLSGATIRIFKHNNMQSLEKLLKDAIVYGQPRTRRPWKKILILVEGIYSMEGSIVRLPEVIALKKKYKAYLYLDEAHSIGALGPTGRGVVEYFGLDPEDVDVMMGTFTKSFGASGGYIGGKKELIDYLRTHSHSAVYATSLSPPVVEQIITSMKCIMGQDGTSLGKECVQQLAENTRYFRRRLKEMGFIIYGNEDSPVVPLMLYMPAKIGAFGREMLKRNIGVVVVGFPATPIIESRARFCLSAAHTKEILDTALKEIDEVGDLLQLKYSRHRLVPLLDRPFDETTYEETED

ALDOA = target: T2, ALDOA (Homo sapiens, UniProt P04075); test: LC-MS/MS site mapping; settings: covalent at Cys339; H358 cells treated with AMG510
T2 sequence (P04075 2-364): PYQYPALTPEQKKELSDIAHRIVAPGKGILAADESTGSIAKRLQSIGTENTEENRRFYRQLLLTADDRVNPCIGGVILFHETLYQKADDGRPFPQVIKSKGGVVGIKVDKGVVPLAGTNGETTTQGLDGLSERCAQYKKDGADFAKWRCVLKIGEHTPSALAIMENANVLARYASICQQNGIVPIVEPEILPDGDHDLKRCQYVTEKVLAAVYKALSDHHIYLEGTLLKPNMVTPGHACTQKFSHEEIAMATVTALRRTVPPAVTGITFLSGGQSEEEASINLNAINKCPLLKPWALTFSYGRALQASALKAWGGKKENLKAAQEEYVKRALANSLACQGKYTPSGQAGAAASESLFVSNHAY

RPE = RPE (Homo sapiens, UniProt Q96AT9); test: direct LC-MS/MS profiling of modified tryptic peptides; settings: covalent at Cys5; H358 cells, […] AMG510, […] h (methods print […] h)
Chain of RPE (Q96AT9 2-228): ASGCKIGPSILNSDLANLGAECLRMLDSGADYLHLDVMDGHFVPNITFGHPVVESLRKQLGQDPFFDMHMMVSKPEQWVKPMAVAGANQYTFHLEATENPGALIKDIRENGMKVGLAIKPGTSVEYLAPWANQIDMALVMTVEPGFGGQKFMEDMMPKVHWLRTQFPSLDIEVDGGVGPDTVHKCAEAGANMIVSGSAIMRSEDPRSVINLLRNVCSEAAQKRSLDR

SMILES: C=CC(=O)N1CCN(c2nc(=O)n(-c3c(C)ccnc3C(C)C)c3nc(-c4c(O)cccc4F)c(F)cc23)[C@@H](C)C1 [AMG510]
- direct LC-MS/MS profiling of modified tryptic peptides (SPTLC2): They included enzymes (PLOD3 C691, RPE C5, SPTLC2 C99, UBE2O C370, and TK1 C3)
- LC-MS/MS site mapping (ALDOA): We first confirmed that Cys339 was also endogenously modified by AMG510 in H358 cells
- direct LC-MS/MS profiling of modified tryptic peptides (RPE): They included enzymes (PLOD3 C691, RPE C5, SPTLC2 C99, UBE2O C370, and TK1 C3)
